According to patent EP3843702B1, “IMMEDIATE RELEASE FIXED-DOSE COMBINATION OF MEMANTINE AND DONEPEZIL” (Tecnimede, Sociedade Técnico-Medicinal, SA, priority 2019, dated 2020):

Conditions: in vivo

In the case of `CC12CC3CC(C)(C1)CC(N)(C3)C2` [Memantine 20mg, 3,5-dimethyladamantan-1-amine], the “AUC 0→72 Point Estimate [%]” value is reported as 103.89% and the “Cmax Point Estimate [%]” value is reported as 101.40%.
